What all share (test): Post-emergence efficacy, glasshouse spray test
Holding throughout (format): in vivo

In experiment [1] the test system is Digitaria sanguinalis (DIGSA). Conditions: evaluated after 13 days; for pest or weed control at 500 g/ha / pest or weed control at 1000 g/ha: Digitaria sanguinalis, post-emergence, 312 h, read-out: Control of weed species DIGSA after post-emergence application (100=total damage to plant; 0=no damage to plant); for pest or weed control at 500 g/ha: application rate 500 g/Ha; for pest or weed control at 1000 g/ha / Control of weed species DIGSA after post-emergence application (100=total damage to plant; 0=no damage to plant): application rate 1000 g/Ha. The protocol: (§1) Seeds of a variety of test species were sown in standard soil in pots. After cultivation for 14 days (post-emergence) under controlled conditions in a glasshouse (at 24/16° C., day/night; 14 hours light; 65% humidity), the plants were sprayed with an aqueous spray solution derived from the dissolution of the technical active ingredient formula (I) in a small amount of acetone and a special solvent and emulsifier mixture referred to as IF50 (11.12% Emulsogen EL360 TM+44.44% N-methylpyrrolidone+44.44% Dowanol DPM glycol ether), to create a 50 g/l solution which was then diluted to required concentration using 0.25% or 1% Empicol ESC70 (Sodium lauryl ether sulphate)+1% ammonium sulphate as diluent. The test plants were then grown in a glasshouse under controlled conditions (at 24/16° C., day/night; 14 hours light; 65% humidity) and watered twice daily. After 13 days the test was evaluated (100=total damage to plant; 0=no damage to plant).
(§2) Ipomoea hederacea (IPOHE), Euphorbia heterophylla (EPHHL), Chenopodium album (CHEAL), Amaranthus palmeri (AMAPA), Lolium perenne (LOLPE), Digitaria sanguinalis (DIGSA), Eleusine indica (ELEIN), Echinochloa crus-galli (ECHCG), Setaria faberi (SETFA)

Experiment [2] deals with Eleusine indica (ELEIN). The note with it: evaluated after 13 days; for pest or weed control at 500 g/ha / pest or weed control at 1000 g/ha: Eleusine indica, post-emergence, 312 h, read-out: Control of weed species ELEIN after post-emergence application (100=total damage to plant; 0=no damage to plant); for pest or weed control at 500 g/ha: application rate 500 g/Ha; for pest or weed control at 1000 g/ha / Control of weed species ELEIN after post-emergence application (100=total damage to plant; 0=no damage to plant): application rate 1000 g/Ha. The protocol:
as §1, §2

The test system of experiment [3] is Echinochloa crus-galli (ECHCG). The note with it: evaluated after 13 days; for pest or weed control at 500 g/ha / pest or weed control at 1000 g/ha: Echinochloa crus-galli, post-emergence, 312 h, read-out: Control of weed species ECHCG after post-emergence application (100=total damage to plant; 0=no damage to plant); for pest or weed control at 500 g/ha: application rate 500 g/Ha; for pest or weed control at 1000 g/ha / Control of weed species ECHCG after post-emergence application (100=total damage to plant; 0=no damage to plant): application rate 1000 g/Ha. The protocol: as §1, §2

In experiment [4] the test system is Setaria faberi (SETFA). The note with it: evaluated after 13 days; for pest or weed control at 500 g/ha / pest or weed control at 1000 g/ha: Setaria faberi, post-emergence, 312 h, read-out: Control of weed species SETFA after post-emergence application (100=total damage to plant; 0=no damage to plant); for pest or weed control at 500 g/ha: application rate 500 g/Ha; for pest or weed control at 1000 g/ha / Control of weed species SETFA after post-emergence application (100=total damage to plant; 0=no damage to plant): application rate 1000 g/Ha. The protocol: as §1, §2

The test system of experiment [5] is Chenopodium album (CHEAL). Conditions: evaluated after 13 days; for pest or weed control at 500 g/ha / pest or weed control at 1000 g/ha: Chenopodium album, post-emergence, 312 h, read-out: Control of weed species CHEAL after post-emergence application (100=total damage to plant; 0=no damage to plant); for pest or weed control at 500 g/ha: application rate 500 g/Ha; for pest or weed control at 1000 g/ha / Control of weed species CHEAL after post-emergence application (100=total damage to plant; 0=no damage to plant): application rate 1000 g/Ha. The protocol: as §1, §2

Experiment [6] deals with Amaranthus palmeri (AMAPA). Conditions: evaluated after 13 days; for pest or weed control at 500 g/ha / pest or weed control at 1000 g/ha: Amaranthus palmeri, post-emergence, 312 h, read-out: Control of weed species AMAPA after post-emergence application (100=total damage to plant; 0=no damage to plant); for pest or weed control at 500 g/ha: application rate 500 g/Ha; for pest or weed control at 1000 g/ha / Control of weed species AMAPA after post-emergence application (100=total damage to plant; 0=no damage to plant): application rate 1000 g/Ha. The protocol: as §1, §2

Experiment [7] has as its system Euphorbia heterophylla (EPHHL). Conditions: evaluated after 13 days; for pest or weed control at 500 g/ha / pest or weed control at 1000 g/ha: Euphorbia heterophylla, post-emergence, 312 h, read-out: Control of weed species EPHHL after post-emergence application (100=total damage to plant; 0=no damage to plant); for pest or weed control at 500 g/ha: application rate 500 g/Ha; for pest or weed control at 1000 g/ha / Control of weed species EPHHL after post-emergence application (100=total damage to plant; 0=no damage to plant): application rate 1000 g/Ha. The protocol: as §1, §2

In experiment [8] the test system is Lolium perenne (LOLPE). Conditions: evaluated after 13 days; for pest or weed control at 500 g/ha / pest or weed control at 1000 g/ha: Lolium perenne, post-emergence, 312 h, read-out: Control of weed species LOLPE after post-emergence application (100=total damage to plant; 0=no damage to plant); for pest or weed control at 500 g/ha: application rate 500 g/Ha; for pest or weed control at 1000 g/ha / Control of weed species LOLPE after post-emergence application (100=total damage to plant; 0=no damage to plant): application rate 1000 g/Ha. The protocol: as §1, §2

Experiment [9] concerns Ipomoea hederacea (IPOHE). The note with it: evaluated after 13 days; for pest or weed control at 500 g/ha / pest or weed control at 1000 g/ha: Ipomoea hederacea, post-emergence, 312 h, read-out: Control of weed species IPOHE after post-emergence application (100=total damage to plant; 0=no damage to plant); for pest or weed control at 500 g/ha: application rate 500 g/Ha; for pest or weed control at 1000 g/ha / Control of weed species IPOHE after post-emergence application (100=total damage to plant; 0=no damage to plant): application rate 1000 g/Ha. The protocol:
as §1, §2

As to `CNC(=O)c1c[n+](CCS(=O)(=O)[O-])nc2ccccc12` [Compound A13], the pest or weed control at 500 g/ha in [1] turned out to be 50%; in [2], 30%; in experiment [3], 50%; in experiment [4], 60%; in experiment [5], 50%; in experiment [6], 40%. Further, the pest or weed control at 500 g/ha in [7], in [8] and in [9] was 20% each time.

On to `CNC(=O)c1c[n+](CCC(=O)O)nc2ccccc12` [Compound A14], for which the pest or weed control at 500 g/ha in [1] came to 80%; in experiment [2], 100%; in experiment [3], 70%; in experiment [4], 80%; in experiment [5] it was 90%; in experiment [6], 100%. Moreover, the pest or weed control at 500 g/ha is 60% in experiment [7], 30% in experiment [8] and 50% in experiment [9].

Consider `CS(=O)(=O)NC(=O)C[n+]1ccc2ccccc2n1` [Compound A15, 2-cinnolin-2-ium-2-yl-N-methylsulfonyl-acetamide bromide], for which the pest or weed control at 1000 g/ha in experiment [1] came out at 70%; in experiment [2], 80%; in experiment [3], 40%; in experiment [4] it was 60%; in [5], 80%; in experiment [6], 90%. In addition, the pest or weed control at 1000 g/ha came out at 90% in experiment [7], 60% in experiment [8] and 80% in experiment [9].

Turning to `COC(=O)CCC[n+]1ccc2ccccc2n1` [Compound A16, methyl 4-cinnolin-2-ium-2-ylbutanoate 2,2,2-trifluoroacetate], the pest or weed control at 1000 g/ha in experiment [1] worked out at 40%; in experiment [2], 60%; in experiment [3], 50%; in [4] it was 50%; in experiment [5], 70%; in [6], 50%. For the same compound, the pest or weed control at 1000 g/ha is 40% in [7], 20% in experiment [8] and 10% in [9].

Consider `O=C(O)CCC[n+]1ccc2ccccc2n1` [Compound A17], for which, in experiment [1], the “Control of weed species DIGSA after post-emergence application (100=total damage to plant; 0=no damage to plant)” value amounted to 40. The “Control of weed species ELEIN after post-emergence application (100=total damage to plant; 0=no damage to plant)” value in [2] was 60. The “Control of weed species ECHCG after post-emergence application (100=total damage to plant; 0=no damage to plant)” value in [3] is 30. Besides, the “Control of weed species SETFA after post-emergence application (100=total damage to plant; 0=no damage to plant)” value in [4] was found to be 40. In addition, the “Control of weed species CHEAL after post-emergence application (100=total damage to plant; 0=no damage to plant)” value in experiment [5] is 60. Also, the “Control of weed species AMAPA after post-emergence application (100=total damage to plant; 0=no damage to plant)” value in [6] was found to be 70. Further, the “Control of weed species EPHHL after post-emergence application (100=total damage to plant; 0=no damage to plant)” value in experiment [7] stood at 40. In [8], the “Control of weed species LOLPE after post-emergence application (100=total damage to plant; 0=no damage to plant)” value is given as 40. Further, the “Control of weed species IPOHE after post-emergence application (100=total damage to plant; 0=no damage to plant)” value in [9] is 30.

For `N[C@@H](CCC[n+]1ccc2ccccc2n1)C(=O)[O-].O=C(O)C(F)(F)F` [Compound A18], the “Control of weed species DIGSA after post-emergence application (100=total damage to plant; 0=no damage to plant)” value in [1] is reported as 40. In addition, the “Control of weed species ELEIN after post-emergence application (100=total damage to plant; 0=no damage to plant)” value in [2] is 90. For the same compound, in experiment [3], the “Control of weed species ECHCG after post-emergence application (100=total damage to plant; 0=no damage to plant)” value is 30. Further, in [4], the “Control of weed species SETFA after post-emergence application (100=total damage to plant; 0=no damage to plant)” value is 20. The “Control of weed species CHEAL after post-emergence application (100=total damage to plant; 0=no damage to plant)” value in experiment [5] amounted to 100. Also, the “Control of weed species AMAPA after post-emergence application (100=total damage to plant; 0=no damage to plant)” value in [6] was found to be 60. Also, in experiment [7], the “Control of weed species EPHHL after post-emergence application (100=total damage to plant; 0=no damage to plant)” value worked out at 20. Also, in experiment [8], the “Control of weed species LOLPE after post-emergence application (100=total damage to plant; 0=no damage to plant)” value is on record as 30. Besides, the “Control of weed species IPOHE after post-emergence application (100=total damage to plant; 0=no damage to plant)” value in [9] was 30.

Consider `O=S(=O)([N-]CC[n+]1ccc2ccccc2n1)C(F)(F)F` [Compound A19, 2-cinnolin-2-ium-2-ylethyl(trifluoromethylsulfonyl)azanide], for which the pest or weed control at 1000 g/ha in experiment [1] was determined as 10%; in experiment [2] it was 0%; in experiment [3] it was 10%; in [4] it was 10%; in experiment [5], 10%; in [6] it was 10%. The pest or weed control at 1000 g/ha in experiment [7] amounted to 20%; in experiment [8], 0%; in experiment [9], 30%.

For `c1ccc2n[n+](Cc3nnn[n-]3)ccc2c1` [Compound A20], the pest or weed control at 1000 g/ha turned out to be 20% in experiment [1]; 20% in experiment [2]; 20% in experiment [3]; 10% in experiment [4]; 10% in experiment [5]; 30% in experiment [6]. Moreover, the pest or weed control at 1000 g/ha in experiment [7] came out at 70%; in [8], 10%; in experiment [9], 0%.

For the compound `CN(C)S(=O)(=O)[N-]C(=O)C[n+]1ccc2ccccc2n1` [Compound A21, (2-cinnolin-2-ium-2-ylacetyl)-(dimethylsulfamoyl)azanide], the pest or weed control at 1000 g/ha in experiment [1] was determined as 10%; in experiment [2], 0%; in experiment [3], 30%; in [4] it was 0%; in [5], 50%; in experiment [6], 10%. Further, the values for the pest or weed control at 1000 g/ha in experiment [7], in experiment [8] and in [9] were 70%, 0% and 20%, respectively.

Values taken from US20220046923A1, “HERBICIDAL CINNOLINIUM COMPOUNDS” (SYNGENTA CROP PROTECTION AG, priority 2018, published 2022).
